The IC50 is the concentration at which inhibition is half-maximal. As usually defined, the IC90 is the concentration at which the effect reaches the 90% level.

The assay concerns Plasmodium berghei. Put plainly: Luciferase/luciferin-expressing antifolate-resistant parasites were used to infect a culture of HepG2 cells that were pre-incubated with compounds. Infected hepatocytes emit light due to the luciferase reaction. Assay results are presented as the percent inhibition of light emission compared to control. […]. In kind it is functional. As to conditions: sporozoite; for IC90: read-out: LUCIFERASE INFECTION ASSAY - IC90.

On to `Cc1ccc(-c2nnc3c(C(F)(F)F)nc4ccccc4n23)cc1`, for which the IC90 was more than 10.1 µM. Moreover, the IC50 (HEPG2TOX_HILL_SLOPE 6.88, HEPG2TOX_R_SQUARED 0.907, PBLUC_HILL_SLOPE 7.21, PBLUC_R_SQUARED 0.0351, read-out: LUCIFERASE INFECTION ASSAY - IC50) was 8.59 µM.
`Nc1nc(Cl)cc(Sc2ccc3ccccc3c2)n1`: the IC90 is more than 11.5 µM. Further, the IC50 (HEPG2TOX_HILL_SLOPE 6.9, HEPG2TOX_R_SQUARED 0.449, read-out: LUCIFERASE INFECTION ASSAY - IC50) is more than 11.5 µM.
With `COc1cc(NC(=O)N2CCc3nc(NCc4cccc(Oc5ccccc5)c4)ncc3C2)cc(OC)c1OC`, the 90% effect concentration (IC90) is more than 6.09 µM. Besides, the IC50 (HEPG2TOX_HILL_SLOPE 6.86, HEPG2TOX_R_SQUARED 0.395, PBLUC_HILL_SLOPE 8.32, PBLUC_R_SQUARED 0.196, read-out: LUCIFERASE INFECTION ASSAY - IC50) was found to be 5.31 µM.
Take `CC(=O)Nc1ccc(-c2cnc3ccc(-c4ccc(S(C)(=O)=O)cc4)nn23)cc1`: the 90% effect concentration (IC90) came out at 7.89 µM. Moreover, the concentration for half-maximal inhibition (IC50) (HEPG2TOX_HILL_SLOPE 6.82, HEPG2TOX_R_SQUARED 0.682, PBLUC_HILL_SLOPE 2.96, PBLUC_R_SQUARED 0.544, read-out: LUCIFERASE INFECTION ASSAY - IC50) was found to be 3.75 µM.
For `CC1c2ccsc2CCN1C(=S)NC(=O)c1ccc(Cl)cc1` (stereo not drawn), the IC90 was more than 9.4 µM. For the same compound, where the note is “HEPG2TOX_HILL_SLOPE 6.89, HEPG2TOX_R_SQUARED 0.823, PBLUC_HILL_SLOPE 41.7, PBLUC_R_SQUARED 0.0283, read-out: LUCIFERASE INFECTION ASSAY - IC50”, the IC50 was determined as 9.18 µM.
On to `c1cc(CNc2ncnc3nc[nH]c23)cc(COCc2ccco2)c1`, for which the IC90 is more than 10 µM. Besides, where the note is “HEPG2TOX_HILL_SLOPE 6.82, HEPG2TOX_R_SQUARED 0.307, PBLUC_HILL_SLOPE 1.97, PBLUC_R_SQUARED 0.21, read-out: LUCIFERASE INFECTION ASSAY - IC50”, the half-maximal inhibitory concentration (IC50) came to 6.9 µM.
On to `CCCCN(C)CC(O)Cn1c2ccc(Cl)cc2c2cc(Cl)ccc21` (stereo not drawn), for which the IC90 amounted to 6.48 µM. Besides, the IC50 (HEPG2TOX_HILL_SLOPE 6.86, HEPG2TOX_R_SQUARED 0.608, PBLUC_HILL_SLOPE 4.67, PBLUC_R_SQUARED 0.619, read-out: LUCIFERASE INFECTION ASSAY - IC50) came to 4.05 µM.
Take `O=C1C=C/C(=N\Nc2ccc(F)cc2)c2cccnc21`: the IC90 was more than 10 µM. In addition, the IC50 (HEPG2TOX_HILL_SLOPE 7.02, HEPG2TOX_R_SQUARED 0.243, read-out: LUCIFERASE INFECTION ASSAY - IC50) is more than 10 µM.
Take `Cc1cc(C)cc(Nc2ncnc3ccsc23)c1`: the IC90 is more than 10 µM. Further, the IC50 (HEPG2TOX_HILL_SLOPE 6.98, HEPG2TOX_R_SQUARED 0.366, PBLUC_HILL_SLOPE 11.4, PBLUC_R_SQUARED 0.0607, read-out: LUCIFERASE INFECTION ASSAY - IC50) is more than 10 µM.
For `Cc1ccc(CSc2nnc(NCc3ccccc3)s2)cc1`, the concentration for an effect of 90% (IC90) is more than 10 µM. For the same compound, the IC50 (HEPG2TOX_HILL_SLOPE 6.81, HEPG2TOX_R_SQUARED 0.677, read-out: LUCIFERASE INFECTION ASSAY - IC50) is more than 10 µM.
Consider `Fc1cccc(-c2nc3ccnc(NCc4ccccc4)c3[nH]2)c1`, for which the IC90 worked out at 4.56 µM. Under “HEPG2TOX_HILL_SLOPE 6.86, HEPG2TOX_R_SQUARED 0.629, PBLUC_HILL_SLOPE 1.32, PBLUC_R_SQUARED 0.696, read-out: LUCIFERASE INFECTION ASSAY - IC50”, the IC50 was 0.868 µM.
Turning to `Cc1ccc(C(=O)c2sc(Nc3ccc(F)cc3)c(-c3nnc(N4CCOCC4)n3-c3ccccc3)c2N)cc1C`, the 90% effect concentration (IC90) was more than 10 µM. The IC50 (HEPG2TOX_HILL_SLOPE 7.05, HEPG2TOX_R_SQUARED 0.741, PBLUC_HILL_SLOPE 9.57, PBLUC_R_SQUARED 0.198, read-out: LUCIFERASE INFECTION ASSAY - IC50) came out at 8.84 µM.
As to `CC1=C(C(=O)OC(C)C)C(c2ccccc2)n2nc(-c3cccs3)nc2N1` (stereo not drawn), the IC90 is more than 10 µM. For the same compound, the IC50 (HEPG2TOX_HILL_SLOPE 6.88, HEPG2TOX_R_SQUARED 0.357, read-out: LUCIFERASE INFECTION ASSAY - IC50) was more than 10 µM.
On to `O=C(CCn1ccnn1)Nc1ccc(Sc2ccc(Br)cc2)cc1`, for which the IC90 is more than 10 µM. Moreover, for the setting “HEPG2TOX_HILL_SLOPE 6.85, HEPG2TOX_R_SQUARED 0.647, PBLUC_HILL_SLOPE 1.94, PBLUC_R_SQUARED 0.683, read-out: LUCIFERASE INFECTION ASSAY - IC50”, the IC50 was determined as 6.08 µM.
Regarding `CCOC(=O)CN(c1cc(OC(C)C)c(Cl)cc1Cl)S(=O)(=O)c1ccc(Cl)cc1`, the IC90 was more than 6.86 µM. For the same compound, under “HEPG2TOX_HILL_SLOPE 6.82, HEPG2TOX_R_SQUARED 0.403, PBLUC_HILL_SLOPE 1.36, PBLUC_R_SQUARED 0.622, read-out: LUCIFERASE INFECTION ASSAY - IC50”, the IC50 was found to be 3.13 µM.
For the compound `COc1nc2c(c(-c3c(F)cccc3Cl)c1C#N)Cc1ccccc1-2`, the IC90 is more than 9.41 µM. Moreover, the IC50 (HEPG2TOX_HILL_SLOPE 6.94, HEPG2TOX_R_SQUARED 0.218, PBLUC_HILL_SLOPE 33.2, PBLUC_R_SQUARED 0.233, read-out: LUCIFERASE INFECTION ASSAY - IC50) amounted to 9 µM.
In the case of `COc1ccc(-c2csc3ncnc(NCc4cccnc4)c23)cc1`, the IC90 was more than 10 µM. Also, the IC50 (HEPG2TOX_HILL_SLOPE 6.97, HEPG2TOX_R_SQUARED 0.88, PBLUC_HILL_SLOPE 2.74, PBLUC_R_SQUARED 0.795, read-out: LUCIFERASE INFECTION ASSAY - IC50) came out at 6.71 µM.
As to `CCn1c(-c2ccccc2)c(C(=O)COc2ccc(Cl)c(C)c2)c2ccccc21`, the IC90 was more than 10 µM. In addition, the IC50 (HEPG2TOX_HILL_SLOPE 7.06, HEPG2TOX_R_SQUARED 0.488, PBLUC_HILL_SLOPE 0.342, PBLUC_R_SQUARED 0.631, read-out: LUCIFERASE INFECTION ASSAY - IC50) turned out to be 0.357 µM.
Turning to `Cc1cccc(Nc2ccccc2C(=O)OCC(=O)Nc2cccc(C#N)c2)c1C`, the IC90 was more than 10 µM. In addition, the IC50 (HEPG2TOX_HILL_SLOPE 6.86, HEPG2TOX_R_SQUARED 0.37, PBLUC_HILL_SLOPE 1.78, PBLUC_R_SQUARED 0.801, read-out: LUCIFERASE INFECTION ASSAY - IC50) is 3.16 µM.
For the compound `O=C(c1cccnc1)N1CCc2nc(NCc3cccc(Oc4ccccc4)c3)ncc2C1`, the IC90 was more than 7.54 µM. Moreover, for the setting “HEPG2TOX_HILL_SLOPE 6.99, HEPG2TOX_R_SQUARED 0.608, read-out: LUCIFERASE INFECTION ASSAY - IC50”, the IC50 was more than 7.54 µM.
Regarding `COc1cc(-c2cnc3cnc(-c4cccc(NS(C)(=O)=O)c4)cn23)cc(OC)c1OC`, the IC90 came out at 6.6 µM. Under “HEPG2TOX_HILL_SLOPE 7.03, HEPG2TOX_R_SQUARED 0.532, PBLUC_HILL_SLOPE 3.63, PBLUC_R_SQUARED 0.378, read-out: LUCIFERASE INFECTION ASSAY - IC50”, the IC50 came out at 3.61 µM.
In the case of `CC1CCCC(N2CC(C(=O)Nc3nc(-c4ccccn4)cs3)CC2=O)C1C` (stereo not drawn), the IC90 was 3.66 µM. Where the note is “HEPG2TOX_HILL_SLOPE 6.97, HEPG2TOX_R_SQUARED 0.551, PBLUC_HILL_SLOPE 16.8, PBLUC_R_SQUARED 0.476, read-out: LUCIFERASE INFECTION ASSAY - IC50”, the IC50 worked out at 3.21 µM.
In the case of `CS(=O)(=O)Nc1cccc(-c2cn3c(-c4cccc(O)c4)cnc3cn2)c1`, the concentration for an effect of 90% (IC90) was determined as 8.16 µM. For the same compound, the 50% inhibitory concentration (IC50) (HEPG2TOX_HILL_SLOPE 7.05, HEPG2TOX_R_SQUARED 0.671, PBLUC_HILL_SLOPE 23.9, PBLUC_R_SQUARED 0.257, read-out: LUCIFERASE INFECTION ASSAY - IC50) amounted to 7.45 µM.
For the compound `Cn1cc(Br)c(-c2cccc(NC(=O)Nc3ccc(Cl)cc3)c2)n1`, the IC90 is more than 8.13 µM. In addition, the IC50 (HEPG2TOX_HILL_SLOPE 7.05, HEPG2TOX_R_SQUARED 0.913, PBLUC_HILL_SLOPE 7.26, PBLUC_R_SQUARED 0.779, read-out: LUCIFERASE INFECTION ASSAY - IC50) was more than 8.13 µM.
As to `C/C(=N\NC(=S)Nc1cccc(C(F)(F)F)c1)c1cc(Cl)ccc1O`, the IC90 is more than 8.51 µM. Besides, the IC50 (HEPG2TOX_HILL_SLOPE 6.81, HEPG2TOX_R_SQUARED 0.836, PBLUC_HILL_SLOPE 11, PBLUC_R_SQUARED 0.0541, read-out: LUCIFERASE INFECTION ASSAY - IC50) turned out to be 7.79 µM.
Regarding `COc1ccc([N+]2=C3CCCCCN3CC2(O)c2ccc(-c3ccccc3)cc2)cc1` (stereo not drawn), the 90% effect concentration (IC90) was more than 10 µM. Where the note is “HEPG2TOX_HILL_SLOPE 6.91, HEPG2TOX_R_SQUARED 0.498, PBLUC_HILL_SLOPE 1.91, PBLUC_R_SQUARED 0.528, read-out: LUCIFERASE INFECTION ASSAY - IC50”, the IC50 amounted to 3.24 µM.
In the case of `CC(Cc1cccs1)N(Cc1ccc(Cl)cc1)C(=O)c1cc(S(=O)(=O)N2CCOCC2)c(Cl)cc1Cl` (stereo not drawn), the IC90 was more than 10 µM. Besides, the IC50 (HEPG2TOX_HILL_SLOPE 6.93, HEPG2TOX_R_SQUARED 0.0438, read-out: LUCIFERASE INFECTION ASSAY - IC50) is more than 10 µM.
As for `NC(=O)c1cc(NC(=O)c2cccs2)ccc1N1CCCCC1`, the IC90 is 4.83 µM. Besides, the IC50 (HEPG2TOX_HILL_SLOPE 7.03, HEPG2TOX_R_SQUARED 0.757, PBLUC_HILL_SLOPE 7.92, PBLUC_R_SQUARED 0.39, read-out: LUCIFERASE INFECTION ASSAY - IC50) worked out at 3.66 µM.
As to `O=C(Nc1ccc(SC(F)(F)F)cc1)N1CCN(c2nc(-c3ccccc3)ns2)CC1`, the IC90 is more than 7.09 µM. The IC50 (HEPG2TOX_HILL_SLOPE 7.08, HEPG2TOX_R_SQUARED 0.48, PBLUC_HILL_SLOPE 1.8, PBLUC_R_SQUARED 0.469, read-out: LUCIFERASE INFECTION ASSAY - IC50) came out at 3.31 µM.

These data come from ChEMBL document CHEMBL4483862, “Open-source discovery of chemical leads for next-generation chemoprotective antimalarials” (2018).
